Values quoted from earlier work as cited in patent publication US20190224051A1, “ETNESS INDICATOR WITH HARDENERS AND CRYSTALLIZERS” (The Procter & Gamble Company, priority 2018, published 2019).

Conditions: Table 2, stabilizers

O=P(O)(O)OP(=O)(O)O [Pyrophosphoric Acid]
pKa (1): 1.5
pKa (2): 2.4
pKa (4): 9.2
